Results reported in patent publication US9521847B2, “Synergistic weed control from applications of pyridine carboxylic acid herbicides and synthetic auxin herbicides and/or auxin transport inhibitors” (Dow AgroSciences LLC, priority 2014, dated 2016).
Values joined by “and” are separate entries in the source; they are usually repeats but may differ in a detail not shown here. Identical values can stand only once. Like-named read-outs stand apart in the source and are kept apart here.

Key:
[1] = system: pigweed (AMARE, Amaranthus retroflexus); experiment: Greenhouse postemergence trial, % visual injury; assay type: in vivo; conditions: for % visual injury, Obs: AMARE
[2] = system: winter rape (BRSNW, Brassica napus); experiment: Greenhouse postemergence trial, % visual injury; assay type: in vivo; conditions: for % visual injury, Obs: BRSNW
[3] = system: common lambsquarters (CHEAL, Chenopodium album L.); experiment: Greenhouse postemergence trial, % visual injury; assay type: in vivo; conditions: for % visual injury, Obs: CHEAL
[4] = system: kochia (KCHSC, Kochia scoparia); experiment: Greenhouse postemergence trial, % visual injury; assay type: in vivo; conditions: for % visual injury, Obs.: Table 60
Procedure: Following the protocol in Example 1, compound 1 and compound 2 were combined with 2,4 D EHE (EC) and applied to kochia (KCHSC, Kochia scoparia) and the phytotoxicity of the herbicidal compositions was measured.
Following the protocol in Example 1, compound 1 (EC) and Compound 2 (SC) were combined with diflufenzopyr and applied to kochia (Kochia scoparia, KCHSC) and the phytotoxicity of the herbicidal composition was measured.

[5] = system: velvetleaf (Abutilon theophrasti, ABUTH); experiment: Greenhouse postemergence trial, % visual injury; assay type: in vivo
[6] = system: nutsedge (Cyperus esculentus, CYPES); experiment: Greenhouse postemergence trial, % visual injury; assay type: in vivo
[7] = system: sunflower (Helianthus annus, HELAN); experiment: Greenhouse postemergence trial, % visual injury; assay type: in vivo; conditions: for % visual injury, Obs: HELAN
[8] = system: wild buckwheat (Polygonum convolvulus, POLCO); experiment: Greenhouse postemergence trial, % visual injury; assay type: in vivo; conditions: for % visual injury, Obs: POLCO
[9] = system: grain sorghum (Sorghum vulgare, SORVU); experiment: Greenhouse postemergence trial, % visual injury; assay type: in vivo
[10] = system: common chickweed (Stellaria media, STEME); experiment: Greenhouse postemergence trial, % visual injury; assay type: in vivo; conditions: for % visual injury, Obs: STEME
[11] = system: wild radish (Raphanus raphanistrum, RAPRA); experiment: Greenhouse postemergence trial, % visual injury; assay type: in vivo
[12] = system: Russian thistle (Salsola iberica, SASKR); experiment: Greenhouse postemergence trial, % visual injury; assay type: in vivo
[13] = system: wild mustard (Sinapis arvensis, SINAR); experiment: Greenhouse postemergence trial, % visual injury; assay type: in vivo
[14] = system: Indian hedge mustard (Sisymbrium orientale, SSYOR); experiment: Greenhouse postemergence trial, % visual injury; assay type: in vivo
[15] = system: ivyleaved speedwell (Veronica hederifolia, VERHE); experiment: Greenhouse postemergence trial, % visual injury; assay type: in vivo; conditions: compound 1 (EC) 5 g ae/ha
[16] = system: Roundup Ready rape (Brassica napus, BRSNN-RR); experiment: Greenhouse postemergence trial, % visual injury; assay type: in vivo; conditions: compound 1 (EC) 5 g ae/ha
spring barley (HORVS) = conditions: in vivo; for % visual injury (Obs): Hordeum vulgare (spring barley)
maize (ZEAMX) = conditions: maize (Zea mays), in vivo
common rice (ORYSA) = conditions: in vivo
[17] = system: Canadian thistle (CIRAR, Cirsium arvense); experiment: Greenhouse postemergence trial, % visual injury; conditions: for % visual injury, Obs: CIRAR; for pest or weed control at 5 g/ha: Cirsium arvense, post-emergence;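 as to all read-outs here: plants sprayed at second to third true leaf stage, injury scored visually 20-22 d later against solvent-blank sprayed controls, 0 meaning no injury and 100 complete kill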
[18] = system: spring rape (Brassica napus, BRSNN); experiment: Greenhouse postemergence trial, % visual injury; conditions: for plant injury at 5 g/ha: Brassica napus, post-emergence
[19] = system: poinsettia (Euphorbia heterophylla, EPHHL); experiment: Greenhouse postemergence trial, % visual injury
[20] = system: wild pansy (Viola tricolor, VIOTR); experiment: Greenhouse postemergence trial, % visual injury; conditions: for % visual injury, Obs: VIOTR
[21] = system: ivyleaf morningglory (Ipomoea hederacea, IPOHE); experiment: Greenhouse postemergence trial, % visual injury
[22] = compound 1 (EC) 5 g ae/ha, Table 62
[23] = compound 1 (EC) 5 g ae/ha, Table 63
[24] = read-out: % visual injury (Obs)

Q: Which results are given for `Nc1c(F)c(-c2ccc3cc[nH]c3c2F)nc(C(=O)O)c1Cl` [compound 1]?
A: % visual injury, Obs ([1]; 5 g ae/ha): 75%; % visual injury, Obs ([1]; 10 g ae/ha): 97%; % visual injury (Obs) ([1]; compound 1 (EC) 5 g ae/ha): 70%; % visual injury (Obs) ([1]; compound 1 (EC) 10 g ae/ha): 85%; % visual injury (Obs) ([1]; compound 1 SC 5 g ae/ha): 70%; % visual injury (Obs) ([1]; compound 1 SC 10 g ae/ha): 85%; % visual injury, Obs ([2]; 5 g ae/ha): 40%; % visual injury, Obs ([2]; 10 g ae/ha): 45%; % visual injury, Obs [2, 22]: 30%; % visual injury, Obs [2, 23]: 50%; % visual injury (Obs) ([2]; compound 1 (EC) 5 g ae/ha): 40% and 70%; % visual injury (Obs) ([2]; compound 1 (EC) 10 g ae/ha): 100% and 80%; % visual injury (Obs) ([2]; compound 1 SC 5 g ae/ha): 30%; % visual injury (Obs) ([2]; compound 1 SC 10 g ae/ha): 60%; % visual injury, Obs ([3]; 5 g ae/ha): 90%; % visual injury, Obs ([3]; 10 g ae/ha): 100%; % visual injury (Obs) ([3]; compound 1 (EC) 5 g ae/ha): 80%; % visual injury Obs ([4]; 8.75 g ae/ha alone, 20-22 d): 43%; pest or weed control at 5 g/ha ([4]; Bassia scoparia, post-emergence, KCHSC, 5 g ae/ha, read-out: % visual injury, Obs): 65%; pest or weed control at 10 g/ha ([4]; Bassia scoparia, post-emergence, KCHSC, 10 g ae/ha, read-out: % visual injury, Obs): 60%; % visual injury, Obs. ([4]; KCHSC, compound 1 (EC) 8.75 g ae/ha): 78%; % visual injury, Obs. ([4]; KCHSC, compound 1 (EC) 17.5 g ae/ha): 80%; % visual injury (Obs) ([4]; compound 1 (EC) 5 g ae/ha): 65%; % visual injury (Obs) ([4]; compound 1 SC 5 g ae/ha): 75%; % visual injury (Obs) ([4]; compound 1 SC 10 g ae/ha): 100%; pest or weed control at 5 g/ha ([5]; Abutilon theophrasti, post-emergence, ABUTH, 5 g ae/ha, read-out: % visual injury, Obs): 70%; pest or weed control at 10 g/ha ([5]; Abutilon theophrasti, post-emergence, ABUTH, 10 g ae/ha, read-out: % visual injury, Obs): 60%; pest or weed control at 5 g/ha ([5]; Abutilon theophrasti, post-emergence, ABUTH, compound 1 (EC) 5 g ae/ha, Table 62, read-out: % visual injury, Obs): 60%; pest or weed control at 5 g/ha ([5]; Abutilon theophrasti, post-emergence, ABUTH, compound 1 (EC) 5 g ae/ha, Table 63, read-out: % visual injury, Obs): 60%; % visual injury (Obs) ([5]; compound 1 (EC) 5 g ae/ha): 70%; % visual injury, Obs ([6]; CYPES, 5 g ae/ha): 30%; pest or weed control at 5 g/ha ([6]; Cyperus, post-emergence, 5 g ae/ha alone, 20-22 d, read-out: % visual injury Obs): 25%; % visual injury (Obs) ([6]; compound 1 (EC) 5 g ae/ha): 30%; % visual injury, Obs ([7]; 5 g ae/ha): 80%; % visual injury, Obs [7, 22]: 70%; % visual injury, Obs [7, 23]: 70%; % visual injury (Obs) ([7]; compound 1 (EC) 5 g ae/ha): 80%; % visual injury, Obs ([8]; 10 g ae/ha): 30%; % visual injury, Obs [8, 22]: 65%; % visual injury, Obs [8, 23]: 65%; % visual injury (Obs) ([8]; compound 1 SC 10 g ae/ha): 30% and 40%; % visual injury Obs ([9]; 5 g ae/ha alone, 20-22 d): 13%; % visual injury, Obs ([9]; SORVU, 10 g ae/ha): 50%; % visual injury (Obs) ([9]; compound 1 (EC) 5 g ae/ha): 30%; % visual injury, Obs ([10]; 5 g ae/ha): 60% and 70%; % visual injury, Obs ([10]; 10 g ae/ha): 70%; % visual injury (Obs) ([10]; compound 1 (EC) 5 g ae/ha): 60%; % visual injury (Obs) ([11]; compound 1 SC 2.5 g ae/ha): 13%; % visual injury (Obs) ([11]; compound 1 SC 5 g ae/ha): 13%; % visual injury (Obs) ([12]; compound 1 (EC) 10 g ae/ha): 65% and 60%; % visual injury (Obs) ([12]; compound 1 SC 5 g ae/ha): 65%; % visual injury (Obs) ([12]; compound 1 SC 10 g ae/ha): 80%; % visual injury (Obs) ([13]; compound 1 (EC) 5 g ae/ha): 100% and 95%; % visual injury (Obs) ([13]; compound 1 (EC) 10 g ae/ha): 100%; % visual injury (Obs) ([13]; compound 1 SC 5 g ae/ha): 100%; % visual injury (Obs) ([13]; compound 1 SC 10 g ae/ha): 80%; % visual injury (Obs) ([14]; compound 1 SC 2.5 g ae/ha): 13%; % visual injury (Obs) ([14]; compound 1 SC 5 g ae/ha): 20%; % visual injury (Obs) [15]: 40%; % visual injury, Obs ([16]; Table 62): 35%; % visual injury, Obs ([16]; Table 63): 35%; % visual injury (Obs) (spring barley (HORVS)): 0%; % visual injury (Obs) (spring barley (HORVS); sc): 0%; % visual injury, Obs (spring barley (HORVS); spring barley (Hordeum vulgare)): 0%; % visual injury (Obs) (maize (ZEAMX)): 5%; % visual injury (Obs) (common rice (ORYSA)): 0%; % visual injury, Obs ([17]; 5 g ae/ha): 10%; % visual injury, Obs [17, 23]: 10%; pest or weed control at 5 g/ha [17, 24]: 10%; pest or weed control at 5 g/ha ([17]; read-out: % visual injury Obs): 20%; % visual injury (Obs) ([17]; compound 1 (EC) 5 g ae/ha): 10%; % visual injury, Obs ([18]; BRSNN, compound 1 (EC) 5 g ae/ha, Table 62): 50%; plant injury at 5 g/ha [18, 24]: 50%; plant injury at 5 g/ha ([18]; read-out: % visual injury Obs): 60%; plant injury at 5 g/ha ([18]; read-out: % visual injury, Obs): 50%; pest or weed control at 5 g/ha ([19]; Euphorbia heterophylla, post-emergence, read-out: % visual injury, Obs, EPHHL, 5 g ae/ha): 95%; pest or weed control at 10 g/ha ([19]; Euphorbia heterophylla, post-emergence, read-out: % visual injury, Obs, EPHHL, 10 g ae/ha): 97%; % visual injury (Obs) ([19]; compound 1 (EC) 5 g ae/ha): 95%; % visual injury, Obs ([20]; 10 g ae/ha): 10%; % visual injury, Obs [20, 22]: 5%; % visual injury, Obs [20, 23]: 5%; pest or weed control at 5 g/ha ([20]; Viola tricolor, post-emergence, read-out: % visual injury Obs): 25%; % visual injury (Obs) ([20]; compound 1 (EC) 5 g ae/ha): 10%; % visual injury (Obs) ([20]; compound 1 SC 2.5 g ae/ha): 13%; % visual injury (Obs) ([20]; compound 1 SC 5 g ae/ha): 23%; pest or weed control at 5 g/ha ([21]; Ipomoea, post-emergence, read-out: % visual injury, Obs, IPOHE, 5 g ae/ha): 20%; pest or weed control at 10 g/ha ([21]; Ipomoea, post-emergence, read-out: % visual injury, Obs, IPOHE, 10 g ae/ha): 10%; % visual injury (Obs) ([21]; compound 1 (EC) 5 g ae/ha): 20%
